Laboratory results as given in patent publication US6835847B2, “Phthalic acid diamide, method for the production thereof and the use of the same as a pesticide” (Bayer CropScience AG, priority 2001, dated 2004).
“And” between values parts separate entries of the source, which are not always exact repeats. Equal values may be shown once.

What was measured:
[1] = tested on: Heliothis virescens caterpillars; experiment: Heliothis virescens test (soybean shoots dipped); assay type: in vivo; settings: 500 ppm active compound
Experimental: (§1) To produce a suitable preparation of active compound, 1 part by weight of active compound is mixed with the stated amounts of solvent and emulsifier, and the concentrate is diluted with emulsifier-containing water to the desired concentration.
Soybean shoots (Glycine max) are treated by being dipped into the preparation of active compound of the desired concentration and are populated with Heliothis virescens caterpillars while the leaves are still moist.
(§2) After the desired period of time, the kill in % is determined. 100% means that all caterpillars have been killed; 0% means that none of the caterpillars have been killed.

[2] = tested on: caterpillars of the army worm (Spodoptera frugiperda); experiment: Spodoptera frugiperda test (cabbage leaves dipped); assay type: in vivo; settings: 168 h, 500 ppm active compound, after 7 d, read-out: Kill rate in % after 7 d
Experimental: Spodoptera frugiperda Test
as §1
Cabbage leaves (Brassica oleracea) are treated by being dipped into the preparation of active compound of the desired concentration and are populated with caterpillars of the army worm (Spodoptera frugiperda) while the leaves are still moist.
as §2

[3] = tested on: caterpillars of the diamond back moth (Plutella xylostella, sensitive strain); experiment: Plutella test, sensitive strain (cabbage leaves dipped); assay type: in vivo; settings: 500 ppm active compound
Experimental: Plutella Test, Sensitive Strain
as §1
Cabbage leaves (Brassica oleracea) are treated by being dipped into the preparation of active compound of the desired concentration and are populated with caterpillars of the diamond back moth (Plutella xylostella, sensitive strain) while the leaves are still moist.
as §2

[4] = logP determination by HPLC (reversed-phase C18), EEC directive 79/831 Annex V.A8; assay type: physicochemical; settings: pH 2.3, 0.1% aqueous phosphoric acid/acetonitrile gradient, 43° C.; for chromatographic logP: read-out: log P (pH 2.3)
Experimental: The stated logP values were determined in accordance with EEC directive 79/831 Annex V.A8 by HPLC (High Performance Liquid Chromatography) using a reversed-phase column (C 18). Temperature: 43° C.
In the acidic range, the determination was carried out at pH 2.3 using the mobile phases 0.1% aqueous phosphoric acid and acetonitrile; linear gradient from 10% acetonitrile to 90% acetonitrile.
Calibration was carried out using unbranched alkan-2-ones (having 3 to 16 carbon atoms) with known logP values (determination of the logP values by the retention times using linear interpolation between two successive alkanones.

[5] = tested on: caterpillars of the army worm (Spodoptera exigua); experiment: Spodoptera exigua test (cabbage leaves dipped); assay type: in vivo; settings: 500 ppm active compound
Experimental: as §1
Cabbage leaves (Brassica oleracea) are treated by being dipped into the preparation of active compound of the desired concentration and are populated with caterpillars of the army worm (Spodoptera exigua) while the leaves are still moist.
as §2

[6] = tested on: caterpillars of the diamond back moth (Plutella xylostella, resistant strain); experiment: Plutella test, resistant strain (cabbage leaves dipped); assay type: in vivo; settings: 500 ppm active compound
Experimental: Plutella Test, Resistant Strain
as §1
Cabbage leaves (Brassica oleracea) are treated by being dipped into the preparation of active compound of the desired concentration and are populated with caterpillars of the diamond back moth (Plutella xylostella, resistant strain) while the leaves are still moist.
as §2

[7] = tested on: larvae of the mustard beetle (Phaedon cochleariae); experiment: Phaedon larvae test (cabbage leaves dipped); assay type: in vivo; settings: 500 ppm active compound
Experimental: as §1
Cabbage leaves (Brassica oleracea) are treated by being dipped into the preparation of active compound of the desired concentration and are populated with larvae of the mustard beetle (Phaedon cochleariae) while the leaves are still moist.
After the desired period of time, the kill in % is determined. 100% means that all beetle larvae have been killed; 0% means that none of the beetle larvae have been killed.

Molecule: Cc1cc(C(F)(C(F)(F)F)C(F)(F)F)ccc1NC(=O)c1cccc(I)c1C(=O)NC(C)CSC[Si](C)(C)C (stereo not shown) [drawing 34]
- Kill rate in % after 7 d [1]: 100%

Molecule: Cc1cc(Oc2ccc(C(F)(F)F)cc2)ccc1NC(=O)c1cccc(I)c1C(=O)NC(C)CSC[Si](C)(C)C (stereo not shown) [drawing 57]
- pest or weed control at 500 ppm [2]: 100%

Molecule: Cc1cc(C(F)(C(F)(F)F)C(F)(F)F)ccc1NC(=O)c1cccc(I)c1C(=O)NC(C)CSC[Si](C)(C)C (stereo not shown) [drawing 43]
- Kill rate in % after 7 d [3]: 100%

Molecule: Cc1cc(C(F)(C(F)(F)F)C(F)(F)F)ccc1NC(=O)c1c(Cl)cccc1C(=O)NCC(C)(C)O[Si](C)(C)C (single isomer, unassigned) [Example 3 Isomer 2, 3-Chloro-N^2-{2-methyl-4-[1,2,2,2-tetrafluoro-1-(trifluoromethyl)ethyl]phenyl}-N^1-{2-methyl-2-[(trimethylsilyl)oxy]propyl}phthalamide]
- chromatographic logP [4]: 3.19

Molecule: Cc1cc(C(F)(C(F)(F)F)C(F)(F)F)ccc1NC(=O)c1cccc(Cl)c1C(=O)NC(C)CSC[Si](C)(C)C (stereo not shown) [drawing 41]
- Kill rate in % after 7 d [3]: 100%

Molecule: Cc1cc(C(F)(C(F)(F)F)C(F)(F)F)ccc1NC(=O)c1cccc(I)c1C(=O)NC(C)CSC[Si](C)(C)C (stereo not shown) [drawing 49]
- Kill rate in % after 7 d [5]: 100%

Molecule: Cc1cc(C(F)(C(F)(F)F)C(F)(F)F)ccc1NC(=O)c1cccc(Cl)c1C(=O)NC(C)CSC[Si](C)(C)C (stereo not shown) [drawing 45]
- Kill rate in % after 7 d [6]: 100%

Molecule: Cc1cc(C(F)(C(F)(F)F)C(F)(F)F)ccc1NC(=O)c1c(Cl)cccc1C(=O)NC(C)CSC[Si](C)(C)C (stereo not shown) [drawing 52]
- pest or weed control at 500 ppm [2]: 100%

Molecule: Cc1cc(C(F)(C(F)(F)F)C(F)(F)F)ccc1NC(=O)c1cccc(I)c1C(=O)NC(C)CSC[Si](C)(C)C (stereo not shown) [drawing 37]
- Kill rate in % after 7 d [7]: 100%

Molecule: Cc1cc(C(F)(C(F)(F)F)C(F)(F)F)ccc1NC(=O)c1c(I)cccc1C(=O)NC(C)CSC[Si](C)(C)C (stereo not shown) [drawing 33]
- Kill rate in % after 7 d [1]: 100%

Molecule: Cc1cc(Oc2ccc(C(F)(F)F)cc2)ccc1NC(=O)c1cccc(Cl)c1C(=O)NC(C)CSC[Si](C)(C)C (stereo not shown) [drawing 39]
- Kill rate in % after 7 d [7]: 100%

Molecule: Cc1cc(Oc2ccc(C(F)(F)F)cc2)ccc1NC(=O)c1c(I)cccc1C(=O)NC(C)CSC[Si](C)(C)C (stereo not shown)
- pest or weed control at 500 ppm [2]: 100%

Molecule: Cc1cc(Oc2ccc(C(F)(F)F)cc2)ccc1NC(=O)c1cccc(Cl)c1C(=O)NC(C)CSC[Si](C)(C)C (stereo not shown) [drawing 58]
- pest or weed control at 500 ppm [2]: 100%

Molecule: 3-Chloro-N^1-[2-methyl-4-(1,1,2,2-tetrafluoroethoxy)phenyl]-N^2-[(trimethylsilyl)methyl]phthalamide (Isomer 1) and 3-chloro-N^2-[2-methyl-4-(1,1,2,2-tetrafluoroethoxy)phenyl]-N^1-[(trimethylsilyl)methyl]phthalamide (Isomer 2) [Example 2 Isomer Mixture]
- log P (pH 2.3) [4]: 3.59 and 3.69

Molecule: Cc1cc(C(F)(C(F)(F)F)C(F)(F)F)ccc1NC(=O)c1c(Cl)cccc1C(=O)NC(C)CSC[Si](C)(C)C (stereo not shown) [drawing 35]
- Kill rate in % after 7 d [7]: 90%

Molecule: Cc1cc(C(F)(C(F)(F)F)C(F)(F)F)ccc1NC(=O)c1c(Cl)cccc1C(=O)NC(C)CSC[Si](C)(C)C (stereo not shown) [drawing 46]
- Kill rate in % after 7 d [5]: 100%

Molecule: Cc1cc(C(F)(C(F)(F)F)C(F)(F)F)ccc1NC(=O)c1cccc(Cl)c1C(=O)NC(C)CSC[Si](C)(C)C (single isomer, unassigned) [Example 1 Isomer 2, 3-Chloro-N^1-{2-methyl-4-[1,2,2,2-tetrafluoro-1-(trifluoromethyl)ethyl]phenyl}-N^2-(1-methyl-2-{[(trimethylsilyl)methyl]sulphanyl}ethyl)phthalamide]
- chromatographic logP [4]: 5.56

Molecule: Cc1cc(C(F)(C(F)(F)F)C(F)(F)F)ccc1NC(=O)c1c(Cl)cccc1C(=O)NC(C)CSC[Si](C)(C)C (stereo not shown) [drawing 44]
- Kill rate in % after 7 d [6]: 100%

Molecule: Cc1cc(Oc2ccc(C(F)(F)F)cc2)ccc1NC(=O)c1c(Cl)cccc1C(=O)NC(C)CSC[Si](C)(C)C (stereo not shown)
- pest or weed control at 500 ppm [2]: 100%

Molecule: Cc1cc(C(F)(C(F)(F)F)C(F)(F)F)ccc1NC(=O)c1cccc(I)c1C(=O)NC(C)CSC[Si](C)(C)C (stereo not shown) [drawing 56]
- pest or weed control at 500 ppm [2]: 100%

Molecule: Cc1cc(C(F)(C(F)(F)F)C(F)(F)F)ccc1NC(=O)c1c(I)cccc1C(=O)NC(C)CSC[Si](C)(C)C (stereo not shown) [drawing 42]
- Kill rate in % after 7 d [3]: 100%

Molecule: Cc1cc(C(F)(C(F)(F)F)C(F)(F)F)ccc1NC(=O)c1cccc(Cl)c1C(=O)NC(C)CSC[Si](C)(C)C (stereo not shown) [drawing 32]
- Kill rate in % after 7 d [1]: 100%

Molecule: Cc1cc(C(F)(C(F)(F)F)C(F)(F)F)ccc1NC(=O)c1c(Cl)cccc1C(=O)NC(C)CSC[Si](C)(C)C (single isomer, unassigned) [Example 1 Isomer 1, 3-Chloro-N^2-{2-methyl-4-[1,2,2,2-tetrafluoro-1-(trifluoromethyl)ethyl]phenyl}-N^1-(1-methyl-2-{[(trimethylsilyl)methyl]sulphanyl}ethyl)phthalamide]
- chromatographic logP [4]: 5.38

Molecule: Cc1cc(C(F)(C(F)(F)F)C(F)(F)F)ccc1NC(=O)c1c(Cl)cccc1C(=O)NC(C)CSC[Si](C)(C)C (stereo not shown) [drawing 31]
- Kill rate in % after 7 d [1]: 100%

Molecule: Cc1cc(C(F)(C(F)(F)F)C(F)(F)F)ccc1NC(=O)c1cccc(Cl)c1C(=O)NCC(C)(C)O[Si](C)(C)C
- pest or weed control at 500 ppm [2]: 100%

Molecule: Cc1cc(C(F)(C(F)(F)F)C(F)(F)F)ccc1NC(=O)c1c(Cl)cccc1C(=O)NCC(C)(C)O[Si](C)(C)C
- pest or weed control at 500 ppm [2]: 100%

Molecule: CC(N)CSC[Si](C)(C)C (stereo not shown) [1-{[(trimethylsilyl)methyl]sulphanyl}-2-propanamide]
- chromatographic logP [4]: 1.28

Molecule: Cc1cc(Oc2ccc(C(F)(F)F)cc2)ccc1NC(=O)c1cccc(I)c1C(=O)NC(C)CSC[Si](C)(C)C (stereo not shown) [drawing 38]
- Kill rate in % after 7 d [7]: 100%

Molecule: Cc1cc(C(F)(C(F)(F)F)C(F)(F)F)ccc1NC(=O)c1cccc(Cl)c1C(=O)NC(C)CSC[Si](C)(C)C (stereo not shown) [drawing 47]
- Kill rate in % after 7 d [5]: 100%

Molecule: Cc1cc(C(F)(C(F)(F)F)C(F)(F)F)ccc1NC(=O)c1cccc(Cl)c1C(=O)NC[Si](C)(C)C
- pest or weed control at 500 ppm [2]: 100%

Molecule: Cc1cc(C(F)(C(F)(F)F)C(F)(F)F)ccc1NC(=O)c1cccc(Cl)c1C(=O)NC(C)CSC[Si](C)(C)C (stereo not shown) [drawing 54]
- pest or weed control at 500 ppm [2]: 100%

Molecule: Cc1cc(-c2nnn(C(C)(C)C)n2)ccc1NC(=O)c1cccc(I)c1C(=O)NC(C)CSC[Si](C)(C)C (stereo not shown)
- pest or weed control at 500 ppm [2]: 100%

Molecule: Cc1cc(C(F)(C(F)(F)F)C(F)(F)F)ccc1NC(=O)c1cccc(Cl)c1C(=O)NCC(C)(C)O[Si](C)(C)C (single isomer, unassigned) [Example 3 Isomer 1, 3-Chloro-N^1-{2-methyl-4-[1,2,2,2-tetrafluoro-1-(trifluoromethyl)ethyl]phenyl}-N^2-{2-methyl-2-[(trimethylsilyl)oxy]propyl}phthalamide]
- chromatographic logP [4]: 3.11

Molecule: Cc1cc(C(F)(C(F)(F)F)C(F)(F)F)ccc1NC(=O)c1c(I)cccc1C(=O)NC(C)CSC[Si](C)(C)C (stereo not shown) [drawing 55]
- pest or weed control at 500 ppm [2]: 100%

Molecule: Cc1cc(C(F)(C(F)(F)F)C(F)(F)F)ccc1NC(=O)c1cccc(Cl)c1C(=O)NC(C)CSC[Si](C)(C)C (stereo not shown) [drawing 36]
- Kill rate in % after 7 d [7]: 100%

Molecule: Cc1cc(C(F)(C(F)(F)F)C(F)(F)F)ccc1NC(=O)c1c(Cl)cccc1C(=O)NC(C)CSC[Si](C)(C)C (stereo not shown) [drawing 40]
- Kill rate in % after 7 d [3]: 100%

Molecule: Cc1cc(C(F)(C(F)(F)F)C(F)(F)F)ccc1NC(=O)c1c(I)cccc1C(=O)NC(C)CSC[Si](C)(C)C (stereo not shown) [drawing 48]
- Kill rate in % after 7 d [5]: 100%
